Measurements as given in patent US10941162B2, “Heterocyclic compounds and uses thereof” (Infinity Pharmaceuticals, Inc., priority 2014, dated 2021).

Assays:
PI3K α = PI3K α (Homo sapiens (Human), UniProt P42336); test: PI3-Kinase in vitro IC50 assay, α isoform; format: biochemical
Source text: (§1) A PI3-Kinase HTRF® assay kit (cat No. 33-016) purchased from Millipore Corporation is used to screen compounds provided herein. This assay uses specific, high affinity binding of the GRP1 pleckstrin homology (PH) domain to PIP3, the product of a Class 1A or 1B PI3 Kinase acting on its physiological substrate PIP2. During the detection phase of the assay, a complex is generated between the GST-tagged PH domain and biotinylated short chain PIP3. The biotinylated PIP3 and the GST-tagged PH domain recruited fluorophores (Streptavidin-Allophycocyanin and Europium-labeled anti-GST respectively) to form the fluorescence resonance energy transfer (FRET) architecture, generating a stable time-resolved FRET signal. The FRET complex is disrupted in a competitive manner by non-biotinylated PIP3, a product formed in the PI3 Kinase assay.
(§2) PI3 Kinase α, β, γ or δ activity is assayed using the PI3 Kinase HTRF®, assay kit (catalogue No. 33-016) purchased from Millipore Corporation. Purified recombinant PI3Kα (catalogue No. 14-602-K), PI3Kβ (catalogue No. 14-603-K), PI3Kγ (catalogue No. 14-558-K), and PI3Kδ (catalogue No. 14-604-K) are obtained from Millipore Corporation. Purified recombinant PI3K enzyme is used to catalyze the phosphorylation of phosphatidylinositol 4,5-bisphosphate (PIP2 at 10 μM) to phosphatidylinositol 3,4,5-trisphosphate (PIP3) in the presence of 10 μM ATP. The assay is carried out in 384-well format and detected using a Perkin Elmer EnVision Xcite Multilabel Reader. Emission ratios are converted into percent inhibitions and imported into GraphPad Prism software. The concentration necessary to achieve inhibition of enzyme activity by 50% (IC50) is calculated using concentrations ranging from 20 μM to 0.1 nM (12-point curve), IC50 values are determined using a nonlinear regression model available in GraphPad Prism 5.
(§3) Promega ADP-Glo Max assay kit (Cat. No. V7002) can be utilized to determine IC50 values for α, β, δ and γ isoforms of human Class I PI3 kinases (Millipore). Samples of kinase (20 nM α or δ, 40 nM β or γ isoform) are incubated with compound for 15 minutes at room temperature in reaction buffer (15 mM HEPES pH 7.4, 20 mM NaCl, 1 mM EGTA, 0.02% Tween 20, 10 mM MgCl2, 0.2 mg/mL bovine-γ-globulins) followed by addition of ATP/diC8-PtdInsP mixture to give final concentrations of 3 mM ATP and 500 uM diC8-PtdInsP. Reactions are incubated at room temperature for 2 hours followed by addition of 25 uL of stop solution. After a 40-minute incubation at room temperature, 50 uL of Promega detection mix is added followed by incubation for 1 hour at room temperature. Plates are then read on Envision plate reader in luminescence mode. Data are converted to % inhibition using the following equation below:
(§4) [formula] where S is the sample luminescence, Pos is a positive control without added PI3K, Neg is the negative control without added compound. Data are then plotted as % inhibition vs compound concentration. Data fit to 4 parameter logistic equation to determine IC50 values: […]

PI3K β = PI3K β (Homo sapiens, UniProt P42338); test: PI3-Kinase in vitro IC50 assay, β isoform; format: biochemical
Source text: A PI3-Kinase HTRF® assay kit (cat No. 33-016) purchased from Millipore Corporation is used to screen compounds provided herein. This assay uses specific, high affinity binding of the GRP1 pleckstrin homology (PH) domain to PIP3, the product of a Class 1A or 1B PI3 Kinase acting on its physiological substrate PIP2. During the detection phase of the assay, a complex is generated between the GST-tagged PH domain and biotinylated short chain PIP3. The biotinylated PIP3 and the GST-tagged PH domain recruited fluorophores (Streptavidin-Allophycocyanin and Europium-labeled anti-GST respectively) to form the fluorescence resonance energy transfer (FRET) architecture, generating a stable time-resolved FRET signal. The FRET complex is disrupted in a competitive manner by non-biotinylated PIP3, a product formed in the PI3 Kinase assay. PI3 Kinase α, β, γ or δ activity is assayed using the PI3 Kinase HTRF®, assay kit (catalogue No. 33-016) purchased from Millipore Corporation. Purified recombinant PI3Kα (catalogue No. 14-602-K), PI3Kβ (catalogue No. 14-603-K), PI3Kγ (catalogue No. 14-558-K), and PI3Kδ (catalogue No. 14-604-K) are obtained from Millipore Corporation. Purified recombinant PI3K enzyme is used to catalyze the phosphorylation of phosphatidylinositol 4,5-bisphosphate (PIP2 at 10 μM) to phosphatidylinositol 3,4,5-trisphosphate (PIP3) in the presence of 10 μM ATP. The assay is carried out in 384-well format and detected using a Perkin Elmer EnVision Xcite Multilabel Reader. Emission ratios are converted into percent inhibitions and imported into GraphPad Prism software. The concentration necessary to achieve inhibition of enzyme activity by 50% (IC50) is calculated using concentrations ranging from 20 μM to 0.1 nM (12-point curve), IC50 values are determined using a nonlinear regression model available in GraphPad Prism 5. Promega ADP-Glo Max assay kit (Cat. No. V7002) can be utilized to determine IC50 values for α, β, δ and γ isoforms of human Class I PI3 kinases (Millipore). Samples of kinase (20 nM α or δ, 40 nM β or γ isoform) are incubated with compound for 15 minutes at room temperature in reaction buffer (15 mM HEPES pH 7.4, 20 mM NaCl, 1 mM EGTA, 0.02% Tween 20, 10 mM MgCl2, 0.2 mg/mL bovine-γ-globulins) followed by addition of ATP/diC8-PtdInsP mixture to give final concentrations of 3 mM ATP and 500 uM diC8-PtdInsP. Reactions are incubated at room temperature for 2 hours followed by addition of 25 uL of stop solution. After a 40-minute incubation at room temperature, 50 uL of Promega detection mix is added followed by incubation for 1 hour at room temperature. Plates are then read on Envision plate reader in luminescence mode. Data are converted to % inhibition using the following equation below: [formula] where S is the sample luminescence, Pos is a positive control without added PI3K, Neg is the negative control without added compound. Data are then plotted as % inhibition vs compound concentration. Data fit to 4 parameter logistic equation to determine IC50 values: [formula]

PI3K δ = PI3K δ (Homo sapiens (Human), UniProt O00329); test: PI3-Kinase in vitro IC50 assay, δ isoform; format: biochemical
Source text: as §1, §2, §3, §4

PI3K γ = PI3K γ (Homo sapiens (Human), UniProt P48736); test: PI3-Kinase in vitro IC50 assay, γ isoform; format: biochemical; conditions: for IC50: in vitro; for PI3K δ/PI3K γ IC50 (selectivity): ratio of PI3K δ IC50 to PI3K γ IC50
Source text: as §1, §2, §3, §4

p110 δ = p110 δ (Homo sapiens (Human), UniProt O00329); test: RAJI p110 δ assay (PI3K-δ selective cellular assay, phospho-AKT); format: cell-based; conditions: RAJI cells stimulated with anti-human IgM
Source text: A compound's ability in selectively inhibiting PI3K-δ can be assessed using RAJI cells, i.e., B lymphocyte cells derived from lymphoma patients. Briefly, serum-starved RAJI cells are stimulated with anti-human IgM, thereby causing signaling through the B-cell receptors, as described in, for example, He et al., Leukemia Research (2009) 33: 798-802. B-cell receptor signaling is important for the activation, differentiation, and survival of B cells and certain B-cell derived cancers. Reduction of phospho-AKT is indicative of compounds that may inhibit B-cell proliferation and function in certain diseases. By monitoring the reduction of phospho-AKT in stimulated RAJI cells (using for example, phospho-AKT antibodies), a compound's potential efficacy in selectively inhibiting PI3KS can be assessed.

p110 γ = p110 γ (Mus musculus (Mouse), UniProt Q9JHG7); test: Raw264.7 p110 γ assay (PI3K-γ selective cellular assay, phospho-AKT); format: cell-based; conditions: for IC50: RAW264.7 cells stimulated with C5a, phospho-AKT; for RAJI δ/Raw264.7 γ IC50 (selectivity): ratio of RAJI p110 δ IC50 to Raw264.7 p110 γ IC50
Source text: A compound's ability in selectively inhibiting PI3K-γ can be assessed using RAW264.7 macrophages. Briefly, serum-starved RAW264.7 cells are stimulated with a known GPCR agonist C5a. See, e.g., Camps et al., Nature Medicine (2005) 11(9):936-943. Cells can be treated with test compounds prior to, simultaneously with, or subsequent to the stimulation by C5a. RAW 264.7 cells respond to the complement component fragment C5a through activation of the C5a receptor, and the C5a receptor activates macrophages and induces cell migration. Test compounds' ability to inhibit C5a-mediated AKT phosphorylation is indicative of selective inhibition of PI3K-γ. Thus, by monitoring the reduction of phospho-AKT in stimulated RAW 264.7 cells (using for example, phospho-AKT antibodies), a compound's potential efficacy in selectively inhibiting PI3Kγ can be assessed.
Certain compounds provided herein were tested in RAW 264.7 cell model using procedures as described above.

Chain of p110 γ (Q9JHG7 whole entry, the tested form may be a part): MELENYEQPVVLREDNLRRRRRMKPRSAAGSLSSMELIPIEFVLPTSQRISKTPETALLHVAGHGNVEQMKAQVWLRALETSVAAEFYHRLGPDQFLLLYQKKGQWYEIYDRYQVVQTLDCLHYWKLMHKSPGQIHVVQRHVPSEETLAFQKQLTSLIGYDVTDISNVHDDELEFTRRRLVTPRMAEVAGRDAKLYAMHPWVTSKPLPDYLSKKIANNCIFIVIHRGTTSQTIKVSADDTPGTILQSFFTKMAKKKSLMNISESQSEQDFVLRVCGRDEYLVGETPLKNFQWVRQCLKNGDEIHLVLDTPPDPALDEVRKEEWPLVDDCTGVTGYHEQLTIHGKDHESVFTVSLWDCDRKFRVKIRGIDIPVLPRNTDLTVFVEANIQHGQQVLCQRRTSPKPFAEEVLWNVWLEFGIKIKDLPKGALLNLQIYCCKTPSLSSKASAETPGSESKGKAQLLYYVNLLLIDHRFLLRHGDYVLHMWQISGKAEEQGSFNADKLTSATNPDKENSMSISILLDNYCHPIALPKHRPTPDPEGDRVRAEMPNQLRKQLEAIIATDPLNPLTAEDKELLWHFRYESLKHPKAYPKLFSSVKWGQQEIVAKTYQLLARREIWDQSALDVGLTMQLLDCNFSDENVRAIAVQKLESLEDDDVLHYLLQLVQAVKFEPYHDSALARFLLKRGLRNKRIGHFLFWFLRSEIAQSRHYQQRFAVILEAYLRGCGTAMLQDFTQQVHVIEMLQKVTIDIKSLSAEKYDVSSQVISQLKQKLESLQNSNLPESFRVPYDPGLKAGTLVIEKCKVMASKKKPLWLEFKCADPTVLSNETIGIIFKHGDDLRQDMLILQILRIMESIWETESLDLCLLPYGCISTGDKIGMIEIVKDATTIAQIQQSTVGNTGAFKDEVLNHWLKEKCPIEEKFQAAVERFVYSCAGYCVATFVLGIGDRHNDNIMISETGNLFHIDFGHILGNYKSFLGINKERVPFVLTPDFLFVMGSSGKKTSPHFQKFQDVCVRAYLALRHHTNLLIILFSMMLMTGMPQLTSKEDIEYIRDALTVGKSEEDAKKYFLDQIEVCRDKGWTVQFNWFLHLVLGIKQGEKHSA
Chain of PI3K γ (P48736 whole entry, canonical isoform): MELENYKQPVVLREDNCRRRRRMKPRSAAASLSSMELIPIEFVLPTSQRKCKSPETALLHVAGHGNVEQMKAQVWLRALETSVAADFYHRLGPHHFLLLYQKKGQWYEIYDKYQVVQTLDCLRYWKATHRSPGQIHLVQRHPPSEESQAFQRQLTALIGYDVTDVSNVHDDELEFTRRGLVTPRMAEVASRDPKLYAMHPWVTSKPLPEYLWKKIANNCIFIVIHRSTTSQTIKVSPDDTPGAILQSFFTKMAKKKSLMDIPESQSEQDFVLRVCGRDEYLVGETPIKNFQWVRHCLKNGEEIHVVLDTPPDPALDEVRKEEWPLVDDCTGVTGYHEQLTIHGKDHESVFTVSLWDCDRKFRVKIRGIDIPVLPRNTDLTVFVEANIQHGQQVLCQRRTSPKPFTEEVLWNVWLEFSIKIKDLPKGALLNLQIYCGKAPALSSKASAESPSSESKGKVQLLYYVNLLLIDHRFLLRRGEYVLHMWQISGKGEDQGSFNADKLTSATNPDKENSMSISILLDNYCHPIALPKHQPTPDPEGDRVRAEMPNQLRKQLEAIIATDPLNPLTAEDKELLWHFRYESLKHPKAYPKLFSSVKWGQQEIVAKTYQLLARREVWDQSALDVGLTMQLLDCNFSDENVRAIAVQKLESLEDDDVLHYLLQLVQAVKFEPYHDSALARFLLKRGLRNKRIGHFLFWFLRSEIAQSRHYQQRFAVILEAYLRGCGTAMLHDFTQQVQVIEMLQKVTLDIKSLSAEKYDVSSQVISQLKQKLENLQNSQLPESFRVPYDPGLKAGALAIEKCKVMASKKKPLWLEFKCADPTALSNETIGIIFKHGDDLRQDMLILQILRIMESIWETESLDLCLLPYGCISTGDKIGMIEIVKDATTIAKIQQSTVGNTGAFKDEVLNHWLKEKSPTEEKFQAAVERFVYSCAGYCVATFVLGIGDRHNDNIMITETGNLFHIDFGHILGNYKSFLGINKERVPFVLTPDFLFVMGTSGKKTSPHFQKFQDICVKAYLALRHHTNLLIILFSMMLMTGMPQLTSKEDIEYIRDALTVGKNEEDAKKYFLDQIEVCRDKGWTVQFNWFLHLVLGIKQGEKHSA
Chain of PI3K α (P42336 whole entry, the tested form may be a part, canonical isoform): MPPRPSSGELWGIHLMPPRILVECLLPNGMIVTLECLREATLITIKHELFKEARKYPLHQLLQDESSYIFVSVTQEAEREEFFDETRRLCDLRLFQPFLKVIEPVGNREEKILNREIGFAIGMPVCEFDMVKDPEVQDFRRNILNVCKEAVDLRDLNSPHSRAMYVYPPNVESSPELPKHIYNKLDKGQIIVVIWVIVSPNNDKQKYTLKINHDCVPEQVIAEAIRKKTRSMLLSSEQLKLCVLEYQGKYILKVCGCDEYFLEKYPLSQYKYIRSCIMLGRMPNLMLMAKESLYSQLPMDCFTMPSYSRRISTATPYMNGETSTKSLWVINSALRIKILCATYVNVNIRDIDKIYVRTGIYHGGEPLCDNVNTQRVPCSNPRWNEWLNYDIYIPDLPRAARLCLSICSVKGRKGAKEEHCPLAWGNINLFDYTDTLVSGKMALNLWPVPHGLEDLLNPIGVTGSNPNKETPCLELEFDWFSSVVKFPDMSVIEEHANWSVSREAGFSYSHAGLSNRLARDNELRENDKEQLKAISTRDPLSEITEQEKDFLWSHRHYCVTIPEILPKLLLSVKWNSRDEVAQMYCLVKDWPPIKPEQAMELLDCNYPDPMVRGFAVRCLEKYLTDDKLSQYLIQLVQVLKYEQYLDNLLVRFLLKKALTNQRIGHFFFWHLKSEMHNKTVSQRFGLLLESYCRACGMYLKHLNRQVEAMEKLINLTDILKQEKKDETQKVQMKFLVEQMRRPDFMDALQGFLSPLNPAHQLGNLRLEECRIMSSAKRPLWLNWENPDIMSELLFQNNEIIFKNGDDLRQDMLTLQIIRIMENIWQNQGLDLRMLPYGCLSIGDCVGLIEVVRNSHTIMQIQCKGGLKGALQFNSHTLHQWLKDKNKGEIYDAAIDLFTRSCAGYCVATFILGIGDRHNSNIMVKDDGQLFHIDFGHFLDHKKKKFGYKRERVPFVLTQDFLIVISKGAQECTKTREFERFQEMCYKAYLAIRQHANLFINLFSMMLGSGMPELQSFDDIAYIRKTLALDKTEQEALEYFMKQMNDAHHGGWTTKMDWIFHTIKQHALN
Chain of PI3K α (P27986 whole entry partner, the tested form may be a part, canonical isoform): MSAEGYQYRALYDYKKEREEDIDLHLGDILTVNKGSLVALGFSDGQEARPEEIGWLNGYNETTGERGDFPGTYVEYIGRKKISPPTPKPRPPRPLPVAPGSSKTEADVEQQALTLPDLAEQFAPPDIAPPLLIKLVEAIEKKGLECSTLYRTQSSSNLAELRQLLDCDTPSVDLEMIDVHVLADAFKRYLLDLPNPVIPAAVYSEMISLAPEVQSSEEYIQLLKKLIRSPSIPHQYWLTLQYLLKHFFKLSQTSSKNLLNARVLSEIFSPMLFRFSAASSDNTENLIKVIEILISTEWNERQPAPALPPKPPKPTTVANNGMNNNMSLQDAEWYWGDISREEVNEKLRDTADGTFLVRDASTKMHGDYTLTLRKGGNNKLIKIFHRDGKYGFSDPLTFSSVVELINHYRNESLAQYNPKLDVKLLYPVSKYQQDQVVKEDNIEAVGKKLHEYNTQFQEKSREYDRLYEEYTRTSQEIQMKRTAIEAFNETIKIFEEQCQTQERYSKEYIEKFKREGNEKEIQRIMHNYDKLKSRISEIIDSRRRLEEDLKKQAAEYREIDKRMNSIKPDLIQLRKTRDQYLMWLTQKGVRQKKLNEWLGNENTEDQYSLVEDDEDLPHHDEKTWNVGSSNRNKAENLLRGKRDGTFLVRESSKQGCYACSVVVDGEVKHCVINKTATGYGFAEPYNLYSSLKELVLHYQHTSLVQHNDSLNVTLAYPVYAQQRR
Chain of p110 δ (O00329 whole entry): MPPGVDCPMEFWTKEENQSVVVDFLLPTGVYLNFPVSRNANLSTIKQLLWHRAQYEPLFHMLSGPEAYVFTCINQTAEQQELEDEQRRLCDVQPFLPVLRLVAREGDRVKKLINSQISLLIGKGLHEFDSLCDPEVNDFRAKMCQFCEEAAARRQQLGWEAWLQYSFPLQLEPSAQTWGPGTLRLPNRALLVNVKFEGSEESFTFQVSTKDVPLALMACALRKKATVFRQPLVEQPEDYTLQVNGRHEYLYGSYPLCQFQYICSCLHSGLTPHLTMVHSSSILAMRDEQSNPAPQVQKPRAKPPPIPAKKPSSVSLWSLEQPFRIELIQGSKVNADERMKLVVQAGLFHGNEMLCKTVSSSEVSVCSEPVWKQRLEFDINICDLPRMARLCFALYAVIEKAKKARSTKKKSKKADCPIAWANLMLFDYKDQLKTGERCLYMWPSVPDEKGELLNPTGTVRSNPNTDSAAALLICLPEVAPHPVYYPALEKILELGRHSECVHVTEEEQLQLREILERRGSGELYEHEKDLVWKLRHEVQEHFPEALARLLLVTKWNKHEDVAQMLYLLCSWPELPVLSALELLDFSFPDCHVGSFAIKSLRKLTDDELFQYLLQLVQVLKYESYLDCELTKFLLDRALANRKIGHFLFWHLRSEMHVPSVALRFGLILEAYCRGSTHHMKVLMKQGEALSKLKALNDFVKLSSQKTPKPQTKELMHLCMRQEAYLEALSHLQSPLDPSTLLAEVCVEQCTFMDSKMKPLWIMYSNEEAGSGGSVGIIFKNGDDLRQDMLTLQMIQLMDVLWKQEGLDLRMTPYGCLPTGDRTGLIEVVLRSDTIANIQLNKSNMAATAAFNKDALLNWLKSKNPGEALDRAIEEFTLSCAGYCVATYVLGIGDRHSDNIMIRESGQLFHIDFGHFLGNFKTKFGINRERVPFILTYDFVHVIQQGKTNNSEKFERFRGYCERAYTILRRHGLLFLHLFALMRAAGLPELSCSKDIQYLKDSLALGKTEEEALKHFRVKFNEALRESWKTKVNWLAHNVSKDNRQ
Chain of p110 δ (P27986 whole entry partner): as the sequence (P27986 whole entry partner, the tested form may be a part, canonical isoform) above

Row | Compound | IC50 (PI3K α) [µM] | IC50 (PI3K β) [µM] | IC50 (PI3K δ) [µM] | IC50 (PI3K γ) [µM] | PI3K δ/PI3K γ IC50 (selectivity) (PI3K γ) | IC50 (p110 δ) [µM] | IC50 (p110 γ) [µM] | RAJI δ/Raw264.7 γ IC50 (selectivity) (p110 γ)
1 | C[C@@H](NC(=O)c1c(N)nn2cccnc12)c1oc2cccc(C#Cc3cnn(C)c3)c2c(=O)c1-c1ccccc1 [Compound 103R] | 5 to 10 | 5 to 10 | 5 to 10 | > 5 | V (V = 0.1 to 1) | 1 to 10 | 0.1 to 10 | X (X = 10 to <50)
2 | C[C@H](NC(=O)c1c(N)nn2cccnc12)c1nc2cccc(C#Cc3cnn(C)c3)c2cc1-c1ccccc1 [Compound 181S] | 5 to 10 | 5 to 10 | 5 to 10 | > 5 | V (V = 0.1 to 1) | 1 to 10 | 0.1 to 10 | Y (Y = 50 to <850)
3 | CC(NC(=O)c1c(N)nn2cccnc12)c1oc2cccc(C#Cc3cnn(C)c3)c2c(=O)c1-c1ccccc1 (centres unmarked) [Compound 103] | 5 to 10 | 5 to 10 | 5 to 10 | 1 to 5 | W (W = >1 to <10) | 1 to 10 | 0.05 to 0.1 | X (X = 10 to <50)
4 | C[C@@H](NC(=O)c1c(N)nn2cccnc12)c1nc2cccc(C#Cc3cnn(C)c3)c2cc1-c1ccccc1 [Compound 181R] | 5 to 10 | 5 to 10 | 5 to 10 | > 5 | V (V = 0.1 to 1) | 1 to 10 | 0.1 to 10 | V (V = 0.1 to 1)
5 | C[C@@H](NC(=O)c1c(N)nn2cccnc12)c1cc2cccc(C#Cc3cnn(C)c3)c2nc1-c1ccccc1 [Compound 175R] | 5 to 10 | 5 to 10 | 5 to 10 | > 5 | V (V = 0.1 to 1) |  |  | 
6 | C[C@H](NC(=O)c1c(N)nn2cccnc12)c1cc2cccc(C#Cc3cnn(C)c3)c2nc1-c1ccccc1 [Compound 175S] | 5 to 10 | 5 to 10 | 5 to 10 | 0.1 to 0.5 | X (X = 10 to <50) | 0.1 to 0.5 | 0.001 to 0.05 | W (W = >1 to <10)
7 | C[C@H](NC(=O)c1c(N)nn2cccnc12)c1oc2cccc(C#Cc3cnn(C)c3)c2c(=O)c1-c1ccccc1 [Compound 103S] | 5 to 10 | 5 to 10 | 5 to 10 | 0.1 to 0.5 | X (X = 10 to <50) | 1 to 10 | 0.001 to 0.05 | Y (Y = 50 to <850)
